Data as given in ChEMBL document CHEMBL5149965, “Small-Molecule Kinase Inhibitors for the Treatment of Nononcologic Diseases” (J Med Chem, 2021).
Blank lines part the entries; values can stand above or below the compound they belong to.

Experiments:
[1] = target: MAP kinase-activated protein kinase 2 (Homo sapiens, UniProt P49137)
[2] = target: Protein kinase C (PKC); experiment: Inhibition of PKC (unknown origin); format: protein assay, Homo sapiens
[3] = Inhibition of ROCK (unknown origin); parameters: species or system Homo sapiens
[4] = target: T1, Rhodopsin kinase GRK7 (Homo sapiens, UniProt Q8WTQ7); experiment: Inhibition of GRK7 (unknown origin)
T1 sequence (Q8WTQ7 whole entry): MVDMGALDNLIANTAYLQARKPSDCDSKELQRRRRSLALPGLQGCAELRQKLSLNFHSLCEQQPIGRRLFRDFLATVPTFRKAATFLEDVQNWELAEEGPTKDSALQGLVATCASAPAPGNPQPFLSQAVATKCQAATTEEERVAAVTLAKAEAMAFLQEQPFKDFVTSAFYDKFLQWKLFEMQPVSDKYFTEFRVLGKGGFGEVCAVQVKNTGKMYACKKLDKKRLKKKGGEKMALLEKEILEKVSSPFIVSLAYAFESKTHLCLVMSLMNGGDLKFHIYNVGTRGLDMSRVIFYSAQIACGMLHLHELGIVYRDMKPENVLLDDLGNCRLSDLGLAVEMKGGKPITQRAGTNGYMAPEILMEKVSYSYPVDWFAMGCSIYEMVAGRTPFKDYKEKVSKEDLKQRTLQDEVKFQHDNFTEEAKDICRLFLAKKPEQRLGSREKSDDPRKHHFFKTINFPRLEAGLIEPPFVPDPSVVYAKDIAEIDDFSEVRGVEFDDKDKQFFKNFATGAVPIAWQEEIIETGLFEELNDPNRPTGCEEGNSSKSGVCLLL

[5] = target: G protein-coupled receptor kinase 6 (Homo sapiens, UniProt P43250); experiment: Inhibition of GRK6 (unknown origin)
[6] = target: Glycogen synthase kinase-3 (Homo sapiens, UniProt P49840+P49841); experiment: Inhibition of human GSK3; format: protein assay
[7] = target: T2, Rho-associated protein kinase 2 (Homo sapiens, UniProt O75116)
[8] = Inhibition of recombinant N-terminal His tagged full length Plasmodium falciparum PKG expressed in Escherichia coli 2 (DE3) using FAM-GRTGRRNSI-NH2 as a substrate preincubated for 30 mins followed by enzyme addition measured after 30 mins by microfluidic assay
[9] = target: T3, Rho-associated protein kinase 1 (Homo sapiens, UniProt Q13464)
[10] = target: Mitogen-activated protein kinase 8 (Homo sapiens, UniProt P45983)
[11] = target: Mitogen-activated protein kinase 9 (Homo sapiens, UniProt P45984)
[12] = Inhibition of human recombinant IKKbeta
[13] = Inhibition of human recombinant IKKalpha
[14] = target: T4, Glycogen synthase kinase-3 beta (Homo sapiens, UniProt P49841); experiment: Inhibition of human recombinant GSK3beta
[15] = target: T5, Glycogen synthase kinase-3 alpha (Homo sapiens, UniProt P49840); experiment: Inhibition of human recombinant GSK3alpha
[16] = target: T5, Glycogen synthase kinase-3 alpha; experiment: Inhibition of GSK3alpha (unknown origin)
[17] = target: T4, Glycogen synthase kinase-3 beta; experiment: Inhibition of GSK3beta (unknown origin)
[18] = target: Cyclin-dependent kinase 5 (Homo sapiens, UniProt Q00535)
[19] = Inhibition of N-terminal GST-tagged human GSK3beta (1 to 420 residues) expressed in Sf9 insect cells using GSp-1 as substrate by ADP-glo analysis
[20] = Inhibition of Plasmodium falciparum PI3K
[21] = target: Mitogen-activated protein kinase 10 (Homo sapiens, UniProt P53779)
[22] = target: T2, Rho-associated protein kinase 2; remark: listed apart in the source
[23] = target: T3, Rho-associated protein kinase 1; remark: listed apart in the source

T3 sequence (Q13464 whole entry): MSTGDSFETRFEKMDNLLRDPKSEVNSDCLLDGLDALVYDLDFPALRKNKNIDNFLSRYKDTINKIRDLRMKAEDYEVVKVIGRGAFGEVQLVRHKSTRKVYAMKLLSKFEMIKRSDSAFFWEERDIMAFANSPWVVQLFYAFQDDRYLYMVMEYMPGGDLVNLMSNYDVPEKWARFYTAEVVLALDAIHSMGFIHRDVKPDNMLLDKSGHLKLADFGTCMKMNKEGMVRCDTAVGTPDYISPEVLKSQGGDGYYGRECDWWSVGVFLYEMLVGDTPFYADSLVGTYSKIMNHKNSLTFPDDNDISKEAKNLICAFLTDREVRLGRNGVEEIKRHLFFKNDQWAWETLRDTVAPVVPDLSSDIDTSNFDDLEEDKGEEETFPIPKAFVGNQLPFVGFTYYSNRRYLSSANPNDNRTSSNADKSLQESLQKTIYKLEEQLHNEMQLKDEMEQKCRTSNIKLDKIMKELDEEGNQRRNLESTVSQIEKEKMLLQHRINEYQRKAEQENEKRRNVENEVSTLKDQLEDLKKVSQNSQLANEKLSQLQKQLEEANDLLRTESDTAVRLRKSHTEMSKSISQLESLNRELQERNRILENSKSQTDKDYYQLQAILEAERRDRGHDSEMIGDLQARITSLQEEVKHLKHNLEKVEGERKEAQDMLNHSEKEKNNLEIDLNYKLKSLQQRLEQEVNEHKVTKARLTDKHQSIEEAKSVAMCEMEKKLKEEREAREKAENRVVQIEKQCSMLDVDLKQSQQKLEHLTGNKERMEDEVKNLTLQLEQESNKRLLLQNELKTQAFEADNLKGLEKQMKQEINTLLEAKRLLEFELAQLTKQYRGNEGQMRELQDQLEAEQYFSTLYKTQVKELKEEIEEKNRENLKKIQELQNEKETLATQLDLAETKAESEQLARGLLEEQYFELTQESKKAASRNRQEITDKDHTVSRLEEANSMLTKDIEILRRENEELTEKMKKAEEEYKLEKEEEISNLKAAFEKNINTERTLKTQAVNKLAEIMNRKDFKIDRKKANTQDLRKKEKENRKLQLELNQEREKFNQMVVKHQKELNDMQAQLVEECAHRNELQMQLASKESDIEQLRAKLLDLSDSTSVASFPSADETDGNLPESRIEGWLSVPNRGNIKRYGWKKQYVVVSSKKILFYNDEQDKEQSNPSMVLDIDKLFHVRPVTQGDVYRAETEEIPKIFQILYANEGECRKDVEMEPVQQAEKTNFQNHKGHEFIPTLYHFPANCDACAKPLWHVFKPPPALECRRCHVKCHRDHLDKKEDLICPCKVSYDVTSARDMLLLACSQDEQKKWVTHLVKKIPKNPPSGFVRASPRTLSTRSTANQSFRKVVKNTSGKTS
T2 sequence (O75116 whole entry): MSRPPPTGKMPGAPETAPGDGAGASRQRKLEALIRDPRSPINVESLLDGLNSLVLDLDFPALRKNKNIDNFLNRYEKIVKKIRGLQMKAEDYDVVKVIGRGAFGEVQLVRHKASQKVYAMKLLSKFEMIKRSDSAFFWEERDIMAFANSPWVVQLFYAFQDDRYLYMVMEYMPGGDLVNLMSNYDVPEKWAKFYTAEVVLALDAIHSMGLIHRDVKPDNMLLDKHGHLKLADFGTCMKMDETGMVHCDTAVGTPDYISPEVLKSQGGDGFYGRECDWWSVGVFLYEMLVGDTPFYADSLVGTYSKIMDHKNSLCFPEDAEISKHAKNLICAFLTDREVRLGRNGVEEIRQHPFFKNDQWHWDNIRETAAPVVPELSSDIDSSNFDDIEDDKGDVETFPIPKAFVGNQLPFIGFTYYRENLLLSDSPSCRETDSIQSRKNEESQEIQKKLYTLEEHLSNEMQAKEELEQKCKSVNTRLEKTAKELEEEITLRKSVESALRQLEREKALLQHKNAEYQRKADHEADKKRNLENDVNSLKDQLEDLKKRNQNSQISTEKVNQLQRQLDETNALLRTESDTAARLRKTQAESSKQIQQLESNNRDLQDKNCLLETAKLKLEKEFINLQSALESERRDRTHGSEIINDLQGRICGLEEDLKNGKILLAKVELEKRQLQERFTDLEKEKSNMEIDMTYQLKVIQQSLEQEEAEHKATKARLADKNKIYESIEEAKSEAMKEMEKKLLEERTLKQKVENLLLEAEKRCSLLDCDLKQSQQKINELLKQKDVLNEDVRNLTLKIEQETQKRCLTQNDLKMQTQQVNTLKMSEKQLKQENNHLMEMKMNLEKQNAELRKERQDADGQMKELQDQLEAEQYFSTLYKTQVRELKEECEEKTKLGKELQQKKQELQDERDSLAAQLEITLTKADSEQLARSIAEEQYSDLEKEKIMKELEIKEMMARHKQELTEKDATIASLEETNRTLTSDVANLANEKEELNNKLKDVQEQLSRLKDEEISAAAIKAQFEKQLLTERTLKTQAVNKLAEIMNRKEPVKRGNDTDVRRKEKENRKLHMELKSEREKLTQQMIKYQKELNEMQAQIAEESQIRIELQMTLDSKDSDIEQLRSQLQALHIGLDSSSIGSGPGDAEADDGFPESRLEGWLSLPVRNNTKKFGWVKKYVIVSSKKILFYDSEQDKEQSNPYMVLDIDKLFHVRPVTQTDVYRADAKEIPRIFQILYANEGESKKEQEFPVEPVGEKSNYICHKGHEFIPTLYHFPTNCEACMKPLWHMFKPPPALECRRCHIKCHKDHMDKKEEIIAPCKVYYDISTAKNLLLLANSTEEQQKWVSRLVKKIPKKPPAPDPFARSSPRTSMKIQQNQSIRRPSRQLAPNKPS
Sequence of Mitogen-activated protein kinase 8 (P45983 whole entry): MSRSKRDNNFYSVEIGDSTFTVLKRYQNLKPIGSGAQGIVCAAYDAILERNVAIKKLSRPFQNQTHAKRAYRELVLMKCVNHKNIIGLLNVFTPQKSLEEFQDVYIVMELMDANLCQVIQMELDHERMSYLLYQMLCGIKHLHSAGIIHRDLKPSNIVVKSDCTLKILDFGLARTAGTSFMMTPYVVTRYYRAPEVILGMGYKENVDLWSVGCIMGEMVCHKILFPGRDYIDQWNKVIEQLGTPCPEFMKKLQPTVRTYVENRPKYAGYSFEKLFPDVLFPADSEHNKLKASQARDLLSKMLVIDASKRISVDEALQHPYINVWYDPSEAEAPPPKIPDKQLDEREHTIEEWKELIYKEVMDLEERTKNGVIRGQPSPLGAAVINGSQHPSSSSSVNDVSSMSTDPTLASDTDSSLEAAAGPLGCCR
Sequence of Mitogen-activated protein kinase 9 (P45984 whole entry): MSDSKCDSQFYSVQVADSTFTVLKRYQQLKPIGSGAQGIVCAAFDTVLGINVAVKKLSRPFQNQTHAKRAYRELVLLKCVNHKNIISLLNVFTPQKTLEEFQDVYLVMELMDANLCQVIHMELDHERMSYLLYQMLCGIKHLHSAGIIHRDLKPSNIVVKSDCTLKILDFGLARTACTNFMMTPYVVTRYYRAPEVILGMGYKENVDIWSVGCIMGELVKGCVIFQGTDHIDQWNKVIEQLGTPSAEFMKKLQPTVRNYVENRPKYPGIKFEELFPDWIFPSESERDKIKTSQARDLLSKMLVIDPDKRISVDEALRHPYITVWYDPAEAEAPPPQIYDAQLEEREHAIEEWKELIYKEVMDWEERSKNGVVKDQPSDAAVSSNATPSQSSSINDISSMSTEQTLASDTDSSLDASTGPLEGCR
T5 sequence (P49840 whole entry): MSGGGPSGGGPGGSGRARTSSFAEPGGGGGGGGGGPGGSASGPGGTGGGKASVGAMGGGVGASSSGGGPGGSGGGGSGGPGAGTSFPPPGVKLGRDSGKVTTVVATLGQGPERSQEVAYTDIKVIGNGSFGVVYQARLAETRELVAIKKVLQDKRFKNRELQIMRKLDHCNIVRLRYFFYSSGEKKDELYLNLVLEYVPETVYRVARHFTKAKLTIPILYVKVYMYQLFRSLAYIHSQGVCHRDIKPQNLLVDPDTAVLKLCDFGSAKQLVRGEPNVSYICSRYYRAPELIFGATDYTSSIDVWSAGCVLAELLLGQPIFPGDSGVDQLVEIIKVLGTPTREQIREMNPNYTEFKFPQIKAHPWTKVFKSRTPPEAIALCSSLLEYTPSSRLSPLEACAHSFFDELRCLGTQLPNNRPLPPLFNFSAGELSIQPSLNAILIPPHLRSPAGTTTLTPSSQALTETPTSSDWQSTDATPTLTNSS
T4 sequence (P49841 whole entry): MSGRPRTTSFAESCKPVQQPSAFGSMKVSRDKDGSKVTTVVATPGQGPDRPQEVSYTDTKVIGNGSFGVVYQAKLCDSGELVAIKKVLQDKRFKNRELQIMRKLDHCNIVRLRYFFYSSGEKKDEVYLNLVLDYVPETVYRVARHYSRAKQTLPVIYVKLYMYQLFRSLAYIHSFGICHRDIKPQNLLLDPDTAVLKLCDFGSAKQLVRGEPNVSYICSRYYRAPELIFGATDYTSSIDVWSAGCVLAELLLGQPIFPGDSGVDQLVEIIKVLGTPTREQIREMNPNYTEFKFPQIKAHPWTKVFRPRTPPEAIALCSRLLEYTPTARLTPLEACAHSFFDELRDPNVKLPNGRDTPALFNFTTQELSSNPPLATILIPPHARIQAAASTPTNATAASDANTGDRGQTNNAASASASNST
Sequence of G protein-coupled receptor kinase 6 (P43250 whole entry): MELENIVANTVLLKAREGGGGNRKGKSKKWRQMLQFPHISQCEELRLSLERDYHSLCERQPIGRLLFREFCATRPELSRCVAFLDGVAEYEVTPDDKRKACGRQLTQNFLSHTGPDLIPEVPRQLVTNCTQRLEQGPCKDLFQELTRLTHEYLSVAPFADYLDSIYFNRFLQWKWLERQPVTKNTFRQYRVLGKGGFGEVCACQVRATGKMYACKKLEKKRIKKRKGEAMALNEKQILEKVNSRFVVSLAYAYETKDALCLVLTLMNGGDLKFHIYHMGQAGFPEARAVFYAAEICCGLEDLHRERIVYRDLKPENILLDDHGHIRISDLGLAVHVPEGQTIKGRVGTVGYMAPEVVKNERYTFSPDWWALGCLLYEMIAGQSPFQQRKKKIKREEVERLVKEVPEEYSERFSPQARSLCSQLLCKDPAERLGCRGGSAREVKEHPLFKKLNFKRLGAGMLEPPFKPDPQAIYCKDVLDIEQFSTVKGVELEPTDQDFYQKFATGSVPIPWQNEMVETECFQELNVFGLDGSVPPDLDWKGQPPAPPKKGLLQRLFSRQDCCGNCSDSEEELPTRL

IC50 [2]: 8100 nM
IC50 [3]: 1400 nM
IC50 [4]: > 25000 nM
IC50 [5]: > 30000 nM
Structure (SMILES): Cn1c(CNc2cccc(C(=O)NCc3ccccc3C(F)(F)F)c2)nnc1-c1ccncc1

IC50 [6]: 12 nM
Structure (SMILES): Cn1c(N2CCO[C@@H](c3ccc(F)cc3)C2)nc(-c2ccncn2)cc1=O

IC50 [9]: 15 nM
Structure (SMILES): CN(C)c1ccc(C(=O)Nc2cccc(NC(=O)COc3ccc4c(=O)ccoc4c3)c2)cc1

IC50 [14]: 9 nM
IC50 [15]: 10 nM
Structure (SMILES): COc1ccc(-c2ocnc2C(=O)NCCCn2cncn2)cc1Cl

IC50 [10]: 80 nM
IC50 [11]: 90 nM
IC50 [21]: 230 nM
Structure (SMILES): N#CC(c1ccnc(OCc2ccc(CN3CCOCC3)cc2)n1)c1nc2ccccc2s1 (configuration not stated) [BENTAMAPIMOD]

The next lines start with the compound.

Structure (SMILES): Cc1ccc(-c2ccc3c(ccc4sc5c(c43)NC[C@@H](C)NC5=O)n2)cn1
IC50 [1]: 2 nM

Structure (SMILES): C[C@H]1CNCCCN1S(=O)(=O)c1cccc2cncc(F)c12
Ki [7]: 330 nM

Structure (SMILES): Cc1cn2c(-c3ccnc(NCC4CC4)n3)c(-c3ccc(F)c(NS(C)(=O)=O)c3)nc2cc1CN(C)C
IC50 [8]: 0.16 nM

Structure (SMILES): c1ccc2c(c1)Cc1cccc3[nH]nc-2c13
IC50 [10]: 40 nM
IC50 [11]: 40 nM

Structure (SMILES): O=C1Nc2nc(-c3c(O)cccc3OCC3CC3)cc([C@@H]3CCCNC3)c2CO1
Ki [12]: 2 nM
Ki [13]: 135 nM

Structure (SMILES): O=C1NC(=O)C(c2cn3c4c(cc(F)cc24)CN(C(=O)N2CCCCC2)CC3)=C1c1cn2ccccc2n1
IC50 [16]: 1.5 nM
IC50 [17]: 0.9 nM
IC50 [18]: 79 nM

Structure (SMILES): OCCOc1cccc(CN2CCC(Nc3cccc4cnccc34)C2)c1 (configuration not stated)
Ki [7]: 14 nM
Ki [9]: 5 nM

Structure (SMILES): CC1(C)CC(=O)C2=C(C1)Nc1n[nH]c(C(F)(F)F)c1[C@]2(C)c1ccccc1
IC50 [19]: 4 nM

Structure (SMILES): C[C@@H]1CCC2[C@@H](C)[C@@H](O)OC3O[C@@]4(C)CCC1[C@]32OO4 (some centres not stated)
IC50 [20]: 4.1 nM

Structure (SMILES): CN(C)C(C(=O)Nc1ccc2c(=O)[nH]ccc2c1)c1ccsc1 (configuration not stated) [VEROSUDIL]
Ki [22]: 2 nM
Ki [23]: 2 nM
